The results in this text go back to ChEMBL document CHEMBL5523762, “Discovery of Potent and Selective G9a Degraders for the Treatment of Pancreatic Cancer” (J Med Chem, 2024).

By IC50 is commonly meant the concentration at which inhibition is half-maximal. A word on the half-life: it is the time in which the quantity being followed falls by half.

Data set [1] deals with PANC-1. Put plainly: Antiproliferative activity against human PANC-1 cells assessed as inhibition of cell growth measured after 72 hrs by SRB assay. The class given is functional, cell-based. Background: In SRB staining, fixed cells bind dye roughly in proportion to their protein.
For data set [2], the system named is ASPC1. Put plainly: Antiproliferative activity against human ASPC1 cells assessed as inhibition of cell growth measured after 72 hrs by SRB assay. The data set is classed as functional, cell-based.
A further data set relates to Panc 05.04. Put plainly: Antiproliferative activity against human Panc 05.04 cells assessed as inhibition of cell growth measured after 72 hrs by SRB assay. The class given is functional, cell-based.
In another data set the test system is CWR22R. Put plainly: Antiproliferative activity against human 22Rv1 cells assessed as inhibition of cell growth measured after 7 days by SRB assay. As to conditions: 22Rv1, 168 h. The class given is functional, cell-based.
Data set [3] relates to PANC-1. Put plainly: Induction of apoptosis in human PANC-1 cells at 10 uM by Annexin V-FITC/PI staining based flow cytometry analysis. The class given is functional, cell-based. The note with it: time 12-72 hrs, TDE = time-dependent effect.
Data set [4] relates to PANC-1. In words: Upregulation of gammaH2AX expression in human PANC-1 cells at 0.1 to 10 uM measured after 24 hrs by Western blot analysis. The class given is functional, cell-based. As to conditions: dose 0.1-10 µM. In general terms: In western blotting, separated proteins are transferred to a membrane and probed.
In data set [5] the test system is ASPC1. Put plainly: Synergistic antiproliferative activity against human ASPC1 cells assessed as combination index upto 20 uM incubated for 72 hrs in presence of MRTX1133. The class given is functional.
The next data set relates to Panc1005. In words: Synergistic antiproliferative activity against human Panc1005 cells assessed as combination index for ED90 upto 20 uM incubated for 72 hrs in presence of MRTX1133. The class given is functional.
Another data set relates to KP-4. In words: Induction of apoptosis in human KP-4 cells at 10 uM incubated for 24 hrs in presence of 5 uM MRTX1133 by Annexin V-FITC/PI staining based flow cytometry analysis. The data set is classed as functional, cell-based. On the technique in general: Flow cytometry measures light scatter and fluorescence of single cells or particles in a stream.
Data set [6] relates to ASPC1. In words: Sensitization of human ASPC1 cells to MRTX1133 assessed as upregulation of cleaved PARP level at 10 uM incubated for 24 hrs in presence of 1 uM MRTX1133 by Western blot analysis. The class given is functional, cell-based.
Data set [7] is described as follows: Half life in male ICR mouse at 5 mg/kg, iv measured upto 24 hrs by LC-MS/MS analysis. The data set is classed as ADME, organism-based. As to conditions: in vivo.
Data set [8] can be described thus: Volume of distribution at steady state in male ICR mouse at 5 mg/kg, iv measured upto 24 hrs by LC-MS/MS analysis. As to conditions: in vivo, read-out: Vdss. The data set is classed as ADME, organism-based.
The target of data set [9] is T1, Histone-lysine N-methyltransferase EHMT2 (Homo sapiens) (UniProt Q96KQ7).
T1 sequence (whole entry): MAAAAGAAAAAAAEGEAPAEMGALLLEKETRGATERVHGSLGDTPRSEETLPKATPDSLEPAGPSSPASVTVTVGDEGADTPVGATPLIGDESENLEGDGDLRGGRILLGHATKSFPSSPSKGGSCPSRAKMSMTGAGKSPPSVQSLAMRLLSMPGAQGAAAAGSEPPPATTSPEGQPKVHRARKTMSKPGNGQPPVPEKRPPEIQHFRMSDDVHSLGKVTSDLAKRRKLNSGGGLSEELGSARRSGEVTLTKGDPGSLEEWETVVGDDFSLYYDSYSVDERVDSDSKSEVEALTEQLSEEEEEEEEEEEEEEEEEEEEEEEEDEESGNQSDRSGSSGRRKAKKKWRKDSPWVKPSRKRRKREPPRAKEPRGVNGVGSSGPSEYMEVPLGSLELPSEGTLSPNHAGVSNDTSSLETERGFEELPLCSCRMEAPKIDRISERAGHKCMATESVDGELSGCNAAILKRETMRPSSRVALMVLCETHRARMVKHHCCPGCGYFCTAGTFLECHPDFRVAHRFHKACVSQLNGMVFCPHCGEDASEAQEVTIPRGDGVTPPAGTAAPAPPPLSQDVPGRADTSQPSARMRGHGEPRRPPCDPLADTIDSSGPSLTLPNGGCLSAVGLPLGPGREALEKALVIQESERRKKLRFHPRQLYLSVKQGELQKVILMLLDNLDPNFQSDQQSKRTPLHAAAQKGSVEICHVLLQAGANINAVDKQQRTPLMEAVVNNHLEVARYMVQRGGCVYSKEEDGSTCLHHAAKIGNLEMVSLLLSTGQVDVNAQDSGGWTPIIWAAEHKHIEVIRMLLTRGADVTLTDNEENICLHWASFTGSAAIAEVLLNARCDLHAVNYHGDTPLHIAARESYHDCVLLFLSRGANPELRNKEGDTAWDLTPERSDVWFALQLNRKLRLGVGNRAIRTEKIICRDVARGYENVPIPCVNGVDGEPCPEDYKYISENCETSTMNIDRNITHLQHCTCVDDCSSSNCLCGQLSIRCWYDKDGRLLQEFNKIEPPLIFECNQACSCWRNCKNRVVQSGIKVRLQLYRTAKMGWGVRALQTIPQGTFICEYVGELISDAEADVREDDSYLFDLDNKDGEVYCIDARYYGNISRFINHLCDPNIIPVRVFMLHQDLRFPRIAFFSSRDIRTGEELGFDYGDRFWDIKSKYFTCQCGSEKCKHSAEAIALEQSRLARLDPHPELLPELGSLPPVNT
In words: Inhibition of N-terminal GST tagged human recombinant G9a (785 to 1210 residues) expressed in Escherichia coli using H3(1 to 21)K9me1 and SAM as substrates incubated for 1 hr by HTRF assay.

Data set [10] deals with T2, Protein cereblon/Histone-lysine N-methyltransferase EHMT2 (Homo sapiens, UniProt Q96KQ7+Q96SW2). In words: PROTAC activity at CRBN/G9a in human PANC-1 cells assessed as downregulation of G9a protein level at 1 uM measured after 8 hrs by quantitative proteomics analysis. The class given is cell-based.
Data set [11] concerns the target T3, Protein cereblon/Histone-lysine N-methyltransferase EHMT1 (Homo sapiens) (UniProt Q9H9B1+Q96SW2). In words: PROTAC activity at CRBN/GLP in human PANC-1 cells assessed as downregulation of GLP protein level at 1 uM measured after 8 hrs by quantitative proteomics analysis. The data set is classed as cell-based.
In data set [12] the test system is PANC-1. Put plainly: Effect on H3K4me1 level in human PANC-1 cells at 0.04 to 10 uM measured after 24 hrs by Western blot analysis. The class given is functional, cell-based. As to conditions: dose 0.04-10 µM.
For data set [13], the system named is PANC-1. Put plainly: Effect on H3K4me3 level in human PANC-1 cells at 0.04 to 10 uM measured after 24 hrs by Western blot analysis. The class given is functional, cell-based. The note with it: dose 0.04-10 µM.
Data set [14] concerns PANC-1. Put plainly: Effect on H3K23me3 level in human PANC-1 cells at 0.04 to 10 uM measured after 24 hrs by Western blot analysis. The data set is classed as functional, cell-based. As to conditions: dose 0.04-10 µM.
Data set [15] deals with PANC-1. Put plainly: Effect on CK1alpha level in human PANC-1 cells at 0.008 to 10 uM measured after 8 hrs by western blot analysis. The note with it: dose 0.008-10 µM. The class given is functional, cell-based.
The target of data set [16] is T3, Protein cereblon/Histone-lysine N-methyltransferase EHMT1 (Homo sapiens). In words: PROTAC activity at CRBN/GLP in human PANC-1 cells assessed as downregulation of GLP protein level at 1 uM in presence of 50 uM cycloheximide measured after 0 to 16 hrs by […]. The note with it: time 0-16 hrs. The class given is cell-based.
Data set [17] concerns the target T2, Protein cereblon/Histone-lysine N-methyltransferase EHMT2. In words: PROTAC activity at CRBN/G9a in human PANC-1 cells assessed as induction of G9a degradation at 1 uM pretreated with thalidomide for 2 hrs followed by compound addition and measured after 8 hrs by Western blot analysis. The class given is cell-based.
Data set [18] has the same target. Put plainly: PROTAC activity at CRBN/G9a in human PANC-1 cells assessed as induction of G9a degradation at 1 uM pretreated with MG132 for 2 hrs followed by compound addition and measured after 8 hrs by Western blot analysis. The class given is cell-based.

Each structure is given as a SMILES string. The source made the active and inactive calls. No cut-off for these calls is given here.

T2 sequence (Q96SW2 whole entry partner, one chain of several): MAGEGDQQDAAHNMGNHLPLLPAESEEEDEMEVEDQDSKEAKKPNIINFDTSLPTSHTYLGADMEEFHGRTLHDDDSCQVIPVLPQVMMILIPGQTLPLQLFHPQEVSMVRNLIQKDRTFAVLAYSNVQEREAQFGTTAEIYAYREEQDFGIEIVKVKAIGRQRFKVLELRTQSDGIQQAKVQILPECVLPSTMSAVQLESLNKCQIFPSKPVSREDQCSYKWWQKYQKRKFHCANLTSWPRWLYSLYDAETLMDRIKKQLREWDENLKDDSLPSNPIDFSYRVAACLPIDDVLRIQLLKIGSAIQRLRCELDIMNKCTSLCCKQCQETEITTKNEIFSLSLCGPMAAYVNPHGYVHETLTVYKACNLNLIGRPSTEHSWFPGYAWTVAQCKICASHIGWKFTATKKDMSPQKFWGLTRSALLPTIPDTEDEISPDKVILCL
T3 sequence (Q96SW2 whole entry, looked up): as the sequence (Q96SW2 whole entry partner, one chain of several) above
T3 sequence (Q9H9B1 whole entry, looked up): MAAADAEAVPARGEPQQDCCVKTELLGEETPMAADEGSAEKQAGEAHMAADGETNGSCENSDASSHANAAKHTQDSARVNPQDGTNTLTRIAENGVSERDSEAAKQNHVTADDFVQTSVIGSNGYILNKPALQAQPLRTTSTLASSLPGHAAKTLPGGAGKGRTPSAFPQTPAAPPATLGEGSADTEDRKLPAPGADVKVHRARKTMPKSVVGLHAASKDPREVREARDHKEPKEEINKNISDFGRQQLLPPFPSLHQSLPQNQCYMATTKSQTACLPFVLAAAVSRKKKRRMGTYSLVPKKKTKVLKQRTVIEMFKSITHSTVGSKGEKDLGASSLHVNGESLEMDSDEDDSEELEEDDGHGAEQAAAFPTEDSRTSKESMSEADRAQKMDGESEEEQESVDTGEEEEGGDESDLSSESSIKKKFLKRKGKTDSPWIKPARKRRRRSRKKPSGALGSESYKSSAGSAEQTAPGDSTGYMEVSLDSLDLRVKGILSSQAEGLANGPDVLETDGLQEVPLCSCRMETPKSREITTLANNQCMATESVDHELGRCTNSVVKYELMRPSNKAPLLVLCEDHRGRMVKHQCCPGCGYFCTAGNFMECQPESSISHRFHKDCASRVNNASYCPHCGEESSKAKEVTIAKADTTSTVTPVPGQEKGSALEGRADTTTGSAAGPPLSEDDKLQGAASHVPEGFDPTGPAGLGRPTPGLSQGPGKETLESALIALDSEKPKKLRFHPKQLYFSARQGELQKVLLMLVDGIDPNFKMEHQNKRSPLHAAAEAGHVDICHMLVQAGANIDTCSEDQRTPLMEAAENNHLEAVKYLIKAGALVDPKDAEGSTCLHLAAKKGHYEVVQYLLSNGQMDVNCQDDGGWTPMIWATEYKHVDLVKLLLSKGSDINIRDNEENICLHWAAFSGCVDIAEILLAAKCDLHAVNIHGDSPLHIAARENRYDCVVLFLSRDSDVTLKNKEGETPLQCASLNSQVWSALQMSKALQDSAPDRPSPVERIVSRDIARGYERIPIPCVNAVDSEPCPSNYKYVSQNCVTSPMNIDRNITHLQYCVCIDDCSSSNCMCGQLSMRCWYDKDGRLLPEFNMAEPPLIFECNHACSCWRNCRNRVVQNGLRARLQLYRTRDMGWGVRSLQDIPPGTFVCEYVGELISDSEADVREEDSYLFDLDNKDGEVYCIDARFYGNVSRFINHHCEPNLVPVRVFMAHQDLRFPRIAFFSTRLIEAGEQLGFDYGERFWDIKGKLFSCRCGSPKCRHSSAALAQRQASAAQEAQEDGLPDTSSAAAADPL

For `COc1cc2c(NC3CCN(CCCC(=O)NCCCCCCCCNc4cccc5c4C(=O)N(C4CCC(=O)NC4=O)C5=O)CC3)nc(C3CCCCC3)nc2cc1OCCCN1CCCC1` (configuration not stated), the outcome with PANC-1 [1], in the data set on ASPC1 [2], with Panc 05.04, with PANC-1 [4], in the data set on KP-4 and in the data set with ASPC1 [6] was Active. Further, the result in [10] was Active. For the same compound, the IC50 in the data set on CWR22R stood at 9.9 µM. Moreover, the Activity result with PANC-1 [3] was “Tde”. Moreover, the CI with ASPC1 [5] is below 0.8; with Panc1005, below 0.4. For the same compound, the half-life in [7] is 5.3 h. For the same compound, the Vd in [8] came out at 2.61 L/kg. Also, in [9], the inhibition result was “Active”. The result (in [11]; in the data set with PANC-1 [12]; with PANC-1 [13]; in the data set with PANC-1 [14]; in the data set on PANC-1 [15]; in data set [16]) was inactive. The outcome in data set [17] and in data set [18] was inactive.
